Source: paper PMC7866984, “Molecular Structure, In Vitro Anticancer Study and Molecular Docking of New Phosphate Derivatives of Betulin” (Molecules, 2021)
Read-outs that look alike come from different tables or passages of the source.

What was measured:
breast cancer T47D cells = test: WST-1 cell viability assay, T47D; assay type: cell-based, human; details: for IC50: read-out: IC50 ± SD, T47D
Procedure: (§1) Evaluation of the effect of new betulin derivatives on the viability of the cultured cells was performed using the WST-1(water soluble tetrazolium salt) assay. Betulin 1 and cisplatin were used as the reference compounds.
(§2) The synthesized compounds and references were tested for cytotoxic activity in vitro against human cancer cell lines such as amelanotic melanoma (C-32, ATCC, Rockville, MD, USA), glioblastoma (SNB-19, DSMZ, Braunschweig, Germany), and breast cancer (T47D, and MDA-MB-231, ATCC, Rockville, MD, USA). Cell cultures were maintained using DMEM (Lonza, Basel, Switzerland) supplemented with 10% fetal bovine serum (FBS) (Biological Industries Cromwell, CT, USA) and penicillin (10,000 U/mL) –streptomycin (10 mg/mL) mix (Lonza, Basel, Switzerland).
(§3) Cultures were performed in 96-well plates (Nunc Thermo Fisher Scientific, Waltham, MA, USA). Cells were seeded at 5 × 10^4/well and incubated for 24 h (at 37 °C, 5% CO2, constant humidity). Then, the medium was replaced with a fresh one with the addition of test compounds in the concentration: 25; 12.5; 6.25; 3.12; 1.56; 0.78; 0.39; 0 µg/mL and incubated again for a further 72 h. After this time, the WST-1 test (Roche Molecular Biochemicals, Mannheim, Germany) was performed to assess the metabolic activity of the cells. The principle of the WST-1 colorimetric test is based on the ability of live cells to decompose bright red tetrazole salts of WST-1 to dark red formazan. The reaction is mediated by mitochondrial dehydrogenases and correlates with the number of cells and their metabolic activity. The absorbance was measured at λ = 450 nm with a UVM340 microplate reader (Biogenet, Józefów, Poland). Results were expressed as a mean value of at least three independent experiments performed in triplicate.

[1] = RP-TLC experimental lipophilicity; assay type: physicochemical; details: for RM0 / logPTLC: RP-TLC; for RM0: acetone/Tris buffer pH 7.4, extrapolated to zero acetone; for logPTLC: from RM0 by calibration equation; for -b: slope of regression plot RM = RM0 + bC
Excerpt: Lipophilicity is an important physicochemical parameter related to the biological activity of compounds. This descriptor, contained in Lipiński’s rule of five, concerns the transport of a compound through the biological membrane system and the formation of a compound–receptor complex. To assess the lipophilic nature of triterpenoids 3–5, 6a–6e, and 7a–7e, the reverse phase chromatography (RP-TLC) method was used (chromatographic procedure by RP-TLC is included in the Supplementary Materials). The theoretical characteristics of the chromatographic parameters (RM0, log PTLC) of the tested derivatives were also performed. […]
Chromatographic procedure by RP-TLC
The experimental lipophilicity parameters was determined using reversed-phase thin-layer chromatography (RP-TLC). The stationary phase was an aluminium backed silica gel RP-18 F254 S plates (Merck, Darmstadt, Germany). Chloroform solutions of reference compounds […]
(acetanilide, 4-bromoacetophenone, benzophenone, anthracene, DDT) and triterpenes 3-5, 6a-6e and 7a-7e were spotted on to the plates in the amount of 2 µL. The chromatograms were performed in triplicate for each compound. The chromatographic chambers were filled of mobile phases consisting of a mixture of acetone (POCh, Gliwice, Poland) and aqueous solution of buffer Tris [(tris-hydroxymethyl)aminomethane] (Fluka, Loughborough, 0.2 M, pH 7.4). The percent acetone volume was varied within the range of 90-60%, in 5% increments. The spots of compounds were visualized by spraying the plates with 10% ethanolic solution of sulphuric acid (VI) and heating for 3 min at 110°C [60]]. The RM values were calculated by the equation RM = log (1/Rf-1) on the basis of average Rf values. The RM0 parameters were obtained by extrapolating on the acetone content to zero, according to the equation RM = RM0 + bC (C – the percentage concentration of acetone in the mobile phase, b – the slope of the regression plot).
The experimental lipophilicity as log PTLC for triterpenes 3-5, 6a-6e and 7a-7e was calculated […]
obtained on the correlation between the literature log Plit values and the experimental RM0 values […]
Table S5. The theoretical values of lipophilicity for tested compounds 3-5, 6a-6e and 7a- […]
Table S6. The correlation matrix for theoretically obtained lipophilicity parameters of compounds 3-5, 6a-6e and 7a-7e. […]

[2] = tested on: amelanotic melanoma (C-32) cells; test: WST-1 cell viability assay, C-32; assay type: cell-based, human; details: WST-1, 72 h
Procedure: as §1, §2, §3

[3] = tested on: glioblastoma (SNB-19) cells; test: WST-1 cell viability assay, SNB-19; assay type: cell-based, human; details: for IC50: WST-1, 72 h
Procedure: as §1, §2, §3

[4] = tested on: breast cancer MDA-MB-231 cells; test: WST-1 cell viability assay, MDA-MB-231; assay type: cell-based, human; details: for IC50: read-out: IC50 ± SD, MDA-MB-231
Procedure: as §1, §2, §3

[5] = Homo sapiens, C32, 72 h, Table 5, betulonic/betulinic acid derivatives, read-out: IC50, C-32
[6] = Homo sapiens, SNB-19, 72 h, Table 5, betulonic/betulinic acid derivatives, read-out: IC50, SNB-19
[7] = Homo sapiens, C32, 72 h, read-out: IC50 ± SD, C-32
[8] = Homo sapiens, SNB-19, 72 h, read-out: IC50 ± SD, SNB-19

Row | SMILES | IC50 (breast cancer T47D cells; Homo sapiens, T47D, 72 h) [µM] | melting point [°C] | RM0 [1] | logPTLC [1] | -b [1] | IC50 [2, 5] [µM] | IC50 [3, 6] [µM] | IC50 [2, 7] [µM] | IC50 [3, 8] [µM] | further results
1 | C#CC(=O)OC[C@]12CC[C@@H](C(=C)COP(=O)(OCC)OCC)C1C1CCC3[C@@]4(C)CC[C@H](OC(=O)C#C)C(C)(C)C4CC[C@@]3(C)[C@]1(C)CC2 (stereo partly drawn) [Compound 6a, 30-Diethoxyphosphoryloxy-3,28-dipropynoylbetulin] | 9.5 ± 0.74 | 127 to 130 | 6.893 | 8.929 | 0.080 | – | – | – | – | –
2 | C=C(COP(=O)(OCC)OCC)[C@@H]1CC[C@]2(C(=O)O)CC[C@]3(C)C(CCC4[C@@]5(C)CCC(O)C(C)(C)C5CC[C@]43C)C12 (stereo partly drawn) [Compound 9] | – | – | – | – | – | > 50 | 5.98 ± 0.43 | – | – | activity against T47D (in words) (breast cancer T47D cells): no activity; IC50 fold higher than 30-phosphonate derivative of 3-acetylbetulinic acid ([3]; SNB-19): more than 4.5 fold; activity against MDA-MB-231 (in words) [4]: no activity
3 | C=C(CP(=O)(OCC)OCC)[C@@H]1CC[C@]2(C(=O)O)CC[C@]3(C)C(CCC4[C@@]5(C)CCC(OC(C)=O)C(C)(C)C5CC[C@]43C)C12 (stereo partly drawn) [R=30-P(O)(OC2H5)2, R1=CH3C(O)O, reference compound] | – | – | – | – | – | 30.7 ± 2.17 | 1.29 ± 0.15 | – | – | –
4 | C=C(C)[C@@H]1CC[C@]2(CO)CC[C@]3(C)[C@H](CC[C@@H]4[C@@]5(C)CC[C@H](O)C(C)(C)[C@@H]5CC[C@]43C)[C@@H]12 [Betulin] | – | – | – | – | – | – | – | – | – | IC50 ([2]; Homo sapiens, C32, read-out: IC50 ± SD, C-32): 15.6 ± 1.11 µM; IC50 (breast cancer T47D cells; Homo sapiens, T47D, WST-1, 72 h): > 50 µM; IC50 ([3]; Homo sapiens, SNB-19, read-out: IC50 ± SD, SNB-19): 9.93 ± 0.25 µM; IC50 ([4]; Homo sapiens, MDA-MB-231, WST-1, 72 h): 7.76 ± 1.87 µM
5 | C#CCOC(=O)OC[C@]12CC[C@@H](C(=C)COP(=O)(OCC)OCC)C1C1CCC3[C@@]4(C)CC[C@H](OC(=O)OCC#C)C(C)(C)C4CC[C@@]3(C)[C@]1(C)CC2 (stereo partly drawn) [Compound 6e, 30-Diethoxyphosphoryloxy-3,28-dipropargyloxycarbonyloxybetulin] | > 50 | 129 to 131 | 6.490 | 8.419 | 0.076 | – | – | 11.4 ± 0.76 | 9.23 ± 0.57 | –
6 | C=C(COP(=O)(OCC)OCC)[C@@H]1CC[C@]2(COC(C)=O)CC[C@]3(C)C(CCC4[C@@]5(C)CC[C@H](OC(C)=O)C(C)(C)C5CC[C@]43C)C12 (stereo partly drawn) [Compound 4, 3,28-Diacetoxy-30-diethoxyphosphoryloxybetulin] | 1.3 ± 0.13 | 61 to 63 | 5.740 | 7.470 | 0.064 | – | – | 33.9 ± 1.59 | 5.01 ± 0.78 | IC50 ([4]; Homo sapiens, MDA-MB-231, 72 h): 14.5 ± 1.37 µM
7 | C=C(CP(=O)(OCC)OCC)[C@@H]1CC[C@]2(C(=O)O)CC[C@]3(C)C(CCC4[C@@]5(C)CCC(O)C(C)(C)C5CC[C@]43C)C12 (stereo partly drawn) [R=30-P(O)(OC2H5)2, R1=OH, reference compound] | – | – | – | – | – | > 50 | > 50 | – | – | –
8 | CCOP(=O)(C=C(C)C1CCC2(C(=O)O)CCC3(C)C(CCC4C5(C)CCC(O)C(C)(C)C5CCC43C)C12)OCC (stereo not drawn) [R=29-P(O)(OC2H5)2, R1=OH, reference compound] | – | – | – | – | – | 47.5 ± 2.96 | 7.67 ± 1.57 | – | – | –
9 | C=C(COP(=O)(OCC)OCC)[C@@H]1CC[C@]2(C(=O)O)CC[C@]3(C)C(CCC4[C@@]5(C)CCC(=O)C(C)(C)C5CC[C@]43C)C12 (stereo partly drawn) [Compound 8] | – | – | – | – | – | 45.7 ± 6.85 | 45.8 ± 5.27 | – | – | activity against T47D (in words) (breast cancer T47D cells): no activity; activity against MDA-MB-231 (in words) [4]: no activity
10 | N.N.[Cl][Pt][Cl] [Cisplatin, reference compound] | – | – | – | – | – | – | – | – | – | IC50 ([2]; read-out: IC50 ± SD, C-32): 4.29 ± 0.65 µM; IC50 (breast cancer T47D cells; WST-1, 72 h): 6.26 ± 1.24 µM; IC50 ([3]; read-out: IC50 ± SD, SNB-19): 5.29 ± 0.12 µM; IC50 ([4]; WST-1, 72 h): 5.47 ± 0.05 µM
11 | C=C(CO)[C@@H]1CC[C@]2(COC(C)=O)CC[C@]3(C)C(CCC4[C@@]5(C)CC[C@H](OC(C)=O)C(C)(C)C5CC[C@]43C)C12 (stereo partly drawn) [Compound 3, 3,28-Diacetyl-30-hydroxybetulin] | – | – | 5.655 | 7.362 | 0.064 | – | – | – | – | –
12 | C#CCOC(=O)OC[C@]12CC[C@@H](C(=C)COP(=O)(OCC)OCC)C1C1CCC3[C@@]4(C)CC[C@H](O)C(C)(C)C4CC[C@@]3(C)[C@]1(C)CC2 (stereo partly drawn) [Compound 7e, 30-Diethoxyphosphoryloxy-28-propargyloxycarbonyloxybetulin] | > 50 | 172 to 174 | 5.302 | 6.916 | 0.063 | – | – | 3.97 ± 0.86 | 1.59 ± 0.09 | –
13 | C=C(COP(=O)(OCC)OCC)[C@@H]1CC[C@]2(COC(=O)C#Cc3ccccc3)CC[C@]3(C)C(CCC4[C@@]5(C)CC[C@H](O)C(C)(C)C5CC[C@]43C)C12 (stereo partly drawn) [Compound 7d, 30-Diethoxyphosphoryloxy-28-(2-phenylpropynoyl)betulin] | 9.47 ± 0.03 | 131 to 134 | 6.145 | 7.982 | 0.070 | – | – | 6.9 ± 0.4 | 4.38 ± 0.04 | IC50 ([4]; Homo sapiens, MDA-MB-231, 72 h): > 50 µM
14 | C=C(COP(=O)(OCC)OCC)[C@@H]1CC[C@]2(COC(=O)C#CC3CC3)CC[C@]3(C)C(CCC4[C@@]5(C)CC[C@H](O)C(C)(C)C5CC[C@]43C)C12 (stereo partly drawn) [Compound 7c, 28-(2-Cyclopropylpropynoyl)-30-diethoxyphosphoryloxybetulin] | > 50 | 133 to 134 | 5.587 | 7.277 | 0.064 | – | – | 11.9 ± 0.52 | 6.29 ± 0.12 | IC50 ([4]; Homo sapiens, MDA-MB-231, 72 h): 9.11 ± 0.39 µM
15 | CCOP(=O)(C=C(C)C1CCC2(C(=O)O)CCC3(C)C(CCC4C5(C)CCC(=O)C(C)(C)C5CCC43C)C12)OCC (stereo not drawn) [R=29-P(O)(OC2H5)2, R1=O=, reference compound] | – | – | – | – | – | 45.5 ± 3.72 | 1.64 ± 0.18 | – | – | –
16 | C=C(C)[C@@H]1CC[C@]2(C(=O)O)CC[C@]3(C)[C@H](CC[C@@H]4[C@@]5(C)CC[C@H](O)C(C)(C)[C@@H]5CC[C@]43C)[C@@H]12 [betulinic acid, reference compound] | – | – | – | – | – | – | – | – | – | IC50 ([2]; Homo sapiens, C32, Table 5, betulonic/betulinic acid derivatives, read-out: IC50, C-32): 8.63 ± 0.9 µM; IC50 ([3]; Homo sapiens, SNB-19, Table 5, betulonic/betulinic acid derivatives, read-out: IC50, SNB-19): 20.1 ± 1.26 µM
17 | C=C(COP(=O)(OCC)OCC)[C@@H]1CC[C@]2(COC(=O)C#Cc3ccccc3)CC[C@]3(C)C(CCC4[C@@]5(C)CC[C@H](OC(=O)C#Cc6ccccc6)C(C)(C)C5CC[C@]43C)C12 (stereo partly drawn) [Compound 6d, 30-Diethoxyphosphoryloxy-3,28-di(2-phenylpropynoyl)betulin] | > 50 | 89 to 91 | 7.877 | 10.174 | 0.086 | – | – | 31.5 ± 1.56 | 11.2 ± 0.28 | IC50 ([4]; Homo sapiens, MDA-MB-231, 72 h): > 50 µM
